By inhibition is commonly meant the share of the control response that was lost under treatment.

T1 sequence (P22460 whole entry): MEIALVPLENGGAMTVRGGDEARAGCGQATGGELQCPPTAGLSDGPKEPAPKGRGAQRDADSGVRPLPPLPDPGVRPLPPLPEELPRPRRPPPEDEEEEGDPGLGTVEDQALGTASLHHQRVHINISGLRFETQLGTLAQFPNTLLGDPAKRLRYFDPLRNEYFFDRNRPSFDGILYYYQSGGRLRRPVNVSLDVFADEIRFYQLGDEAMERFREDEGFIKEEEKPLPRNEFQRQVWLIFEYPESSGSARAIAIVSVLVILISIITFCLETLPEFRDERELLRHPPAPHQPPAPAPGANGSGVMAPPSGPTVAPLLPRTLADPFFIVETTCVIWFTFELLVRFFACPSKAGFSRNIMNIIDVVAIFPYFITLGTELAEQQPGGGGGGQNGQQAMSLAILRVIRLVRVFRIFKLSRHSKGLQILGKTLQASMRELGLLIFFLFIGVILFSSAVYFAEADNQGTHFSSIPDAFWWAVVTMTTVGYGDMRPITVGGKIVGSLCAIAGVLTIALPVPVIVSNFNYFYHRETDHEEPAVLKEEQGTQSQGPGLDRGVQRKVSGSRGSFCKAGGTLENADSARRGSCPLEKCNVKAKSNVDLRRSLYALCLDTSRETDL

The first test has as its target T1, human Kv 1.5 (Homo sapiens, UniProt P22460).
T1 construct: expressed in transfected cells; host or cells: mammalian L-929 cells (mouse fibroblasts)
The test can be described thus: block of IKur current in patch clamped L-929 cells expressing human Kv1.5. Format: cell-based. The settings on record: 0.3 μM; patch clamped mammalian L-929 cells stably expressing IKur protein. The source says:
Assays to determine the degree of activity of a compound as an IKur inhibitor are well known in the art and are described in references such as J. Gen. Physiol., 101(4):513-543 (April 1993), and Br. J. Pharmacol., 115(2):267-274 (May 1995).
1. Synders, D. J. et al., “A rapidly activating and slowly inactivating potassium channel cloned from human heart: functional analysis after stable mammalian cell culture expression”, J. Gen. Physiol., 101:513-543 (1993).
2. Zhou, Z. et al., “Block of HERG potassium channels by the antihistamine astemizole and its metabolites desmethylastemizole and norastemizole”, J. Cardiovasc. Electrophysiol., 10(6):836-843 (1999).
(Patch clamp records ionic current or voltage across a cell membrane.)
Consider `CC(Nc1nnc(-c2cncc(S(N)(=O)=O)c2)n2ccc(-c3ccccc3)c12)c1ccccn1` (single isomer, unassigned) [Example 5, 5-(8-phenyl-1-(1-(pyridin-2-yl)ethylamino)pyrrolo[1,2-d][1,2,4]triazin-4-yl)pyridine-3-sulfonamide], for which the “Percentage inhibition of Kv1.5 in L-929 cells at 0.3 μM” value was 88%.

The same test, now with this note: L929, 0.3 μM; patch clamped mammalian L-929 cells stably expressing IKur protein; read-out: Percentage inhibition of Kv1.5 in L-929 cells at 0.3 μM.
For `NS(=O)(=O)c1cc(-c2nnc(NCc3ccccn3)c3c(-c4ccccc4)ccn23)cnc1C(F)F` [Example 3, 2-(Difluoromethyl)-5-(8-phenyl-1-(pyridin-2-ylmethylamino)pyrrolo[1,2-d][1,2,4]triazin-4-yl)pyridine-3-sulfonamide], the inhibition at 0.3 µM is 95%.
For `NS(=O)(=O)c1cncc(-c2nnc(NCc3ccccc3F)c3c(-c4ccccc4)ccn23)c1` [Example 8, 5-(1-(2-fluorobenzylamino)-8-phenylpyrrolo[1,2-d][1,2,4]triazin-4-yl)pyridine-3-sulfonamide], the inhibition at 0.3 µM turned out to be 93%.
The same measure, in the same setting: for `NS(=O)(=O)c1cncc(-c2nnc(NCc3ncccc3F)c3c(-c4ccccc4)ccn23)c1` [Example 7, 5-(1-(((3-fluoropyridin-2-yl)methyl)amino)-8-phenylpyrrolo[1,2-d][1,2,4]triazin-4-yl)pyridine-3-sulfonamide] the value was 98%; for `NS(=O)(=O)c1cncc(-c2nnc(Nc3cccc(F)c3)c3c(-c4ccccc4)ccn23)c1` [Example 2, 5-(1-(3-Fluorophenylamino)-8-phenylpyrrolo[1,2-d][1,2,4]triazin-4-yl)pyridine-3-sulfonamide], 91%; for `NS(=O)(=O)c1cncc(-c2nnc(NCc3ccccc3)c3c(-c4ccccc4)ccn23)c1` [Example 1, 5-(1-(Benzylamino)-8-phenylpyrrolo[1,2-d][1,2,4]triazin-4-yl)pyridine-3-sulfonamide], 89%.
On the same count and under the same terms, under `CC(Nc1nnc(-c2cncc(S(N)(=O)=O)c2)n2ccc(-c3ccccc3)c12)c1ccccn1` (single isomer, unassigned) [Example 6, 5-(8-phenyl-1-(1-(pyridin-2-yl)ethylamino)pyrrolo[1,2-d][1,2,4]triazin-4-yl)pyridine-3-sulfonamide] stands 92%.
On the same count and under the same terms, under `NS(=O)(=O)c1cncc(-c2nnc(NCc3ccccn3)c3c(-c4ccccc4)ccn23)c1` [Example 4, 5-(8-phenyl-1-(pyridin-2-ylmethylamino)pyrrolo[1,2-d][1,2,4]triazin-4-yl)pyridine-3-sulfonamide] stands 86%; under `NS(=O)(=O)c1cncc(-c2nnc(NCc3c(F)cccc3F)c3c(-c4ccccc4)ccn23)c1` [Example 9, 5-(1-(2,6-difluorobenzylamino)-8-phenylpyrrolo[1,2-d][1,2,4]triazin-4-yl)pyridine-3-sulfonamide], 92%.
